Laboratory results as given in ChEMBL document CHEMBL4118184, “Design, synthesis and biological evaluation of novel pyrimidinedione derivatives as DPP-4 inhibitors” (Bioorg Med Chem Lett, 2018).
Activity calls are given as the source filed them. The calls are words filed in the database; no cut-off is given here.

System: not listed separately
Assay: Lipophilicity, log P of the compound
Assay type: physicochemical
Settings: octanol/water

logP | Compound
3.82 | CC#CCn1c(N2CCC[C@@H](N)C2)cc(=O)n(CCCCCCCCCC)c1=O
2.12 | CC#CCn1c(N2CCC[C@@H](N)C2)cc(=O)n(Cc2cc(F)cc(F)c2)c1=O
0.9 | CC#CCn1c(N2CCC[C@@H](N)C2)cc(=O)n(CCC)c1=O
3.49 | COc1cc(Cn2c(=O)cc(N3CCC[C@@H](N)C3)n(Cc3cc(F)ccc3C#N)c2=O)cc(Br)c1OC
3.21 | CC#CCn1c(N2CCC[C@@H](N)C2)cc(=O)n(Cc2cc(OC)c(OC)c(Br)c2Br)c1=O
3.26 | CCCCCCn1c(=O)cc(N2CCC[C@@H](N)C2)n(Cc2cc(F)ccc2C#N)c1=O
4.32 | COc1cc(Cn2c(=O)cc(N3CCC[C@@H](N)C3)n(Cc3cc(F)ccc3C#N)c2=O)c(Br)c(Br)c1OC
2.15 | CC#CCn1c(N2CCC[C@@H](N)C2)cc(=O)n(CCCCCC)c1=O
3.89 | Cc1cc(C)cc(Cn2c(=O)cc(N3CCC[C@@H](N)C3)n(Cc3cc(F)ccc3C#N)c2=O)c1
5.15 | COc1c(Br)c(Br)c(Cn2c(=O)cc(N3CCC[C@@H](N)C3)n(Cc3cc(F)ccc3C#N)c2=O)c(Br)c1OC
2.66 | COc1ccc(Cn2c(=O)cc(N3CCC[C@@H](N)C3)n(Cc3cc(F)ccc3C#N)c2=O)cc1OC [listing 1 of 2 here]
3.23 | N#Cc1ccc(F)cc1Cn1c(N2CCC[C@@H](N)C2)cc(=O)n(Cc2cc(F)cc(F)c2)c1=O
2.38 | CC#CCn1c(N2CCC[C@@H](N)C2)cc(=O)n(Cc2cc(Br)c(OC)c(OC)c2)c1=O
0.41 | CC#CCn1c(N2CCC[C@@H](N)C2)cc(=O)n(CC)c1=O
4.93 | CCCCCCCCCCn1c(=O)cc(N2CCC[C@@H](N)C2)n(Cc2cc(F)ccc2C#N)c1=O
1.55 | CC#CCn1c(N2CCC[C@@H](N)C2)cc(=O)n(Cc2ccc(OC)c(OC)c2)c1=O
2.78 | CC#CCn1c(N2CCC[C@@H](N)C2)cc(=O)n(Cc2cc(C)cc(C)c2)c1=O
4.04 | CC#CCn1c(N2CCC[C@@H](N)C2)cc(=O)n(Cc2c(Br)c(Br)c(OC)c(OC)c2Br)c1=O

System: Mus musculus
Assay: Toxicity in BKS db/db mouse assessed as effect on water intake at 100 mg/kg/day up to 4 weeks
Assay type: organism-based
Settings: in vivo, 672 h

Compound | Activity
CN(C)C(=N)N=C(N)N [METFORMIN] | Toxic
COc1ccc(Cn2c(=O)cc(N3CCC[C@@H](N)C3)n(Cc3cc(F)ccc3C#N)c2=O)cc1OC.O=C(O)CCC(=O)O | Toxic

System: Mus musculus
Assay: Toxicity in BKS db/db mouse assessed as effect on body weight at 100 mg/kg/day up to 4 weeks
Assay type: organism-based
Settings: in vivo, 672 h

Compound | Activity
CN(C)C(=N)N=C(N)N [METFORMIN] | Non-Toxic
COc1ccc(Cn2c(=O)cc(N3CCC[C@@H](N)C3)n(Cc3cc(F)ccc3C#N)c2=O)cc1OC.O=C(O)CCC(=O)O | Non-Toxic

System: Mus musculus
Assay: Antihyperglycemic activity in BKS db/db mouse assessed as reduction in blood glucose level at 100 mg/kg/day for 4 weeks by glucometric analysis
Assay type: functional, organism-based
Settings: not given

Compound | Activity
CN(C)C(=N)NC(=N)N | Active
COc1ccc(Cn2c(=O)cc(N3CCC[C@@H](N)C3)n(Cc3cc(F)ccc3C#N)c2=O)cc1OC [listing 2 of 2 here] | Active

System: Mus musculus
Assay: Effect on abdominal fat content in BKS db/db mouse assessed as reduction in abdominal fat ratio at 100 mg/kg/day for 4 weeks
Assay type: functional, organism-based
Settings: not given

Compound | Activity
CN(C)C(=N)NC(=N)N | inactive
COc1ccc(Cn2c(=O)cc(N3CCC[C@@H](N)C3)n(Cc3cc(F)ccc3C#N)c2=O)cc1OC [listing 2 of 2 here] | inactive
